# Key:
# ATM enzyme (human) = ATM enzyme (human) (Homo sapiens, UniProt Q13315); experiment: ATM kinase assay (HTRF, phosphorylation of GST-cMyc-p53); format: biochemical; conditions: 0.5 h; detected concentration 1 μm
# Method: ATM enzyme (human) was added to the reaction solution containing 30 nM GST-cMyc-p53 and 10 μM Mg/ATP, and then 50 times the concentration of the tested compound (or reference compound AZD0156) dissolved in 100% DMSO was added to the final concentration of 10 μM/1 μM/0.1 μM/0.01 μM. The reaction was initiated by the addition of a Mg/ATP mixture and incubation for 30 minutes at room temperature, the reaction was quenched by the addition of a stop solution containing EDTA. Finally, the detection buffer containing the d2-labeled anti-GST monoclonal antibody and the europium-labeled anti-phospho p53 (Ser15) antibody was added. The plate was then read in time resolved fluorescence mode and the homogeneous time resolved fluorescence (HTRF) signal was determined according to the equation: HTRF=10000×(Em665nm/Em620nm). Each compound sample was repeated in duplicate. The negative control contained all components except the ATM enzyme, and the positive control contained all components. All reactions were quenched by adding EDTA.
# The compounds were serially diluted to 10 concentrations with 100% DMSO at the ratio of 1:3 and 1:10 (the last concentration was negative control of DMSO), then added to the ATM buffer and diluted to a final concentration of 10, 3, 1, 0.3, 0.1, 0.03, 0.01, 0.003, 0.001 and 0 μM, respectively. ATM kinase inhibition was detected by using the method described above. The curve equation for calculating IC50 value is as follows: […]
# wherein, C is the concentration of compound and D is the slope factor. Table 2 summarizes the IC50 values of compounds inhibiting ATM kinase.
# [1] = system: human colon cancer cell SW620; experiment: MTT assay, growth of SW620 cells, compounds combined with CPT-11; format: cell-based; conditions: for IC50: Homo sapiens, SW-620, 120 h, 205 nM CPT-11, 5 days, MTT
# Method: (§1) SW620 cells were digested by trypsinase, centrifuged at 800 rpm for 5 minutes, the supernatant was discarded, resuspended with fresh medium (RPMI 1640 medium+10% FBS) and counted. The cells were seeded into 96-well cell culture plate with appropriate cell density and incubated overnight in a 37° C. 5% CO2 incubator. The stock solutions of the tested compound and the reference compound AZD0156 were serially diluted to 8 concentrations by DMSO at the ratios of 1:3 and 1:10, respectively, and the last concentration was negative control of DMSO (0 μM, the final concentration of DMSO was 1%). 5 μL of each concentration was added to 120 μL of medium (25 times diluted) and mixed by shaking. The overnight cells were taken and the culture medium was removed, 195 μL of fresh medium containing 205 nM CPT-11 was added to each well, and 5 μL of diluted medium containing the corresponding concentration of the tested sample was added respectively, and the culture plate was then placed in the 5% CO2 cell culture incubator at 37° C. for 5 days. After removing the original solution, 100 μL of fresh serum-free DMEM medium containing MTT (0.5 mg/mL) was added to each well, the culture was continued. After 4 hours, the original solution was removed, 100 μL of DMSO was added into each well, the 96-well plates were shaken away from light for 10 minutes and placed in a multi-function reader to read the absorbance at the wavelength of 552/630/690 nm. GraphPad Prism 6.0 was used to analyze the data. The inhibitory activity of compounds on cell proliferation was plotted based on cell viability and compound concentration. The IC50 value was fitted by a sigmoidal dose response curve equation Y=100/(1+10^(Log C−Log IC50)), where C was the concentration of compound.
# [2] = system: human breast cancer cell MDA-MB-468; experiment: MTT assay, growth of MDA-MB-468 cells; format: cell-based; conditions: for IC50: Homo sapiens, MDA-MB-468, 168 h, single agent, 7 days, MTT
# Method: as §1, with “MDA-MB-468 cells” for “SW620 cells”, “1:10, respectively:” for “1:10, respectively, and”, “medium (PRMI 1640+5% FBS)” for “medium containing 205 nM CPT-11”, “for 7 days (On the fourth day, the medium containing drugs was removed and fresh medium containing drugs was added for continuous cultivation).” for “for 5 days.”
# Sequence of ATM enzyme (human) (Q13315 whole entry): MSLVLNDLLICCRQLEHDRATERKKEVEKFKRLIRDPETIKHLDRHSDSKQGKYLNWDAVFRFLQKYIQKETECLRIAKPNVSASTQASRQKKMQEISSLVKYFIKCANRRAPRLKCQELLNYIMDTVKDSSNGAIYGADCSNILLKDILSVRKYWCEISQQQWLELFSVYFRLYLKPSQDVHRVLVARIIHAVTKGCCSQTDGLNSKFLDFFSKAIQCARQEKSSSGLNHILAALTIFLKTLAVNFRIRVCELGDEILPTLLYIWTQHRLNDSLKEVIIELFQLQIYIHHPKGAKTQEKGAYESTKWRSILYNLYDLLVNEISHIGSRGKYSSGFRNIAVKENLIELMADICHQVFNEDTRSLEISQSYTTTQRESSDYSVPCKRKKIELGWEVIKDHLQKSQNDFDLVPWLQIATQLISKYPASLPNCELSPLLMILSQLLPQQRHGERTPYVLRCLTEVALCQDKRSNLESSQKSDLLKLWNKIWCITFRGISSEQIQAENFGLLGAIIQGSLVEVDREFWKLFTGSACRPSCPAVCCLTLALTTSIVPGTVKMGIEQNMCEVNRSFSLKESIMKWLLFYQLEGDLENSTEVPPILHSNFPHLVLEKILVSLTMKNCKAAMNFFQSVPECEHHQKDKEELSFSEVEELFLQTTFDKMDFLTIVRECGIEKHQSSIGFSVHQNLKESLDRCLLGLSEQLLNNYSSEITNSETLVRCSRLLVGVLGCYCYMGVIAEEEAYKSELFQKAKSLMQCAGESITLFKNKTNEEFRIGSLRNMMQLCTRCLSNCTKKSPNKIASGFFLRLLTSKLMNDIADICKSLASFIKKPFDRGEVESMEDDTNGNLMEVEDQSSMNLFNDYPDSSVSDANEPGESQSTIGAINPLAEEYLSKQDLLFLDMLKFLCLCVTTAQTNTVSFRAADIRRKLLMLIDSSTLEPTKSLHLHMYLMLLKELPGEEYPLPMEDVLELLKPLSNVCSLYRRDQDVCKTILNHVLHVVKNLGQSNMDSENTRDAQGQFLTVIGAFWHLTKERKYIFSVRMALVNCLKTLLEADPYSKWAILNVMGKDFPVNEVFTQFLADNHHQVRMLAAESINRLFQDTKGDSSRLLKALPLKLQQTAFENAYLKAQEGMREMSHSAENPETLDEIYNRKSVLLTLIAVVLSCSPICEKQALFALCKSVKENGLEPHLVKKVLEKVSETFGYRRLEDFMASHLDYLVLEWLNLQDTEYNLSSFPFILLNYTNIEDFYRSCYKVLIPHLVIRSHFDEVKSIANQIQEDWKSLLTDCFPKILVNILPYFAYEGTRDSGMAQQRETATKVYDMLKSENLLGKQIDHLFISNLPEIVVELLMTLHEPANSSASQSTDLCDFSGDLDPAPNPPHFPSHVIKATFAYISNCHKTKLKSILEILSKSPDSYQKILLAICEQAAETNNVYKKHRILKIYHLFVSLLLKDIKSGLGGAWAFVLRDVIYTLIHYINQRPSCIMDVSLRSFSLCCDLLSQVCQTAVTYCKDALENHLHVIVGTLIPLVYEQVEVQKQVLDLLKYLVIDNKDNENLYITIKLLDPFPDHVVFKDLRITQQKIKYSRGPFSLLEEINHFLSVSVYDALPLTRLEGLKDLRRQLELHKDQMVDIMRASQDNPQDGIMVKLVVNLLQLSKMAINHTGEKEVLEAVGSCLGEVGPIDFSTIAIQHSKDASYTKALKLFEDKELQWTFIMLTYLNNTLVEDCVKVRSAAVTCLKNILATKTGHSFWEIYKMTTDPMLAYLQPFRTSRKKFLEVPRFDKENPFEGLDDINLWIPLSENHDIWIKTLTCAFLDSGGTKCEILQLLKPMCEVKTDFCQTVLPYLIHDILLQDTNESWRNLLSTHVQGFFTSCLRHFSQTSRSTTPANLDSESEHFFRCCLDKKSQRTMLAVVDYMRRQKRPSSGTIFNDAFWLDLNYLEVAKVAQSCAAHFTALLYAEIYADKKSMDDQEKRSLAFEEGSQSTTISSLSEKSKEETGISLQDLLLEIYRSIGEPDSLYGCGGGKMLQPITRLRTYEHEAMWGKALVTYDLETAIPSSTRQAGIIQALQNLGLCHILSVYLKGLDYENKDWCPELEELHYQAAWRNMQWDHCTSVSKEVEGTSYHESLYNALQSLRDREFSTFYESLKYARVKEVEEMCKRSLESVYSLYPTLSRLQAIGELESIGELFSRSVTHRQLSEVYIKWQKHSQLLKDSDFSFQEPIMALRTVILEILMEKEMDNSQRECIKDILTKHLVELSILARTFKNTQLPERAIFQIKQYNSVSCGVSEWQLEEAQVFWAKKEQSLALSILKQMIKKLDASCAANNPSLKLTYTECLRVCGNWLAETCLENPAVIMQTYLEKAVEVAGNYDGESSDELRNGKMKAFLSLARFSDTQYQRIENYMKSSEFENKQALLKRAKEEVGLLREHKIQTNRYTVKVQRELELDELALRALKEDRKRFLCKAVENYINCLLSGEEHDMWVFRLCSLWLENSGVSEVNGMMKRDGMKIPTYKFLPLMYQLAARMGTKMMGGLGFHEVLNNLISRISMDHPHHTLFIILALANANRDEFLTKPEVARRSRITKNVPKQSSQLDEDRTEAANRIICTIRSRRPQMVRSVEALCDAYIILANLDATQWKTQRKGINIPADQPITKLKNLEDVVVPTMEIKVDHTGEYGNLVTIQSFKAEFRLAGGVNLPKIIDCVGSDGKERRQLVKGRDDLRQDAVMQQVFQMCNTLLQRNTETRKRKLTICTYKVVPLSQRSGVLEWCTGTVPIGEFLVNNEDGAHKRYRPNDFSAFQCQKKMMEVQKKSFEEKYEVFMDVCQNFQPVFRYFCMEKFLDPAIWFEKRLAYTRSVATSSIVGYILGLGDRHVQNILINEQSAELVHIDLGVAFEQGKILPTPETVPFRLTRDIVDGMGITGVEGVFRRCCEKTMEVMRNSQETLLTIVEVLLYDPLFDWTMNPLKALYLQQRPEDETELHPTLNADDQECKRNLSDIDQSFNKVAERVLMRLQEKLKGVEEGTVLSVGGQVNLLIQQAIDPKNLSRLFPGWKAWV
SMILES,inhibition at 1 µM (ATM enzyme (human)) [%],IC50 [1] [nM],IC50 [2] [nM],growth of SW620 cell (in words) ([1]; MTT assay),growth of MDA-MB-468 cell (in words) ([2]; MTT assay)
"C[C@@H]1CN(c2cccc3nc4ccc(-c5ccc(N6CCC(N(C)C)CC6)c(Cl)c5)cn4c23)C[C@H](C)N1C [Example 47, N,N-dimethyl-1-(2-chloro-4-(9-((3S,5R)-3,4,5-trimethylpiperazin-1-yl)benzo[4,5]imidazo[1,2-a]pyridin-2-yl)phenyl)piperidin-4-amine]",100,166,60.5,–,–
"C[C@@H]1CN(c2cccc3nc4ccc(-c5ccc(N6CCC(N(C)C)CC6)c(C(F)(F)F)c5)cn4c23)C[C@H](C)N1C [Example 48, N,N-dimethyl-1-(2-(trifluoromethyl)-4-(9-((3S,5R)-3,4,5-trimethylpiperazin-1-yl)benzo[4,5]imidazo[1,2-a]pyridin-2-yl)phenyl)piperidin-4-amine]",100,> 1000,> 1000,–,–
"CN(C)C1CCN(c2ccc(-c3ccc4nc5cccc(N6CCC(N(C)C)CC6)c5n4c3)cc2)CC1 [Example 56, N,N-dimethyl-1-(4-(9-(4-(dimethylamino)piperidin-1-yl)benzo[4,5]imidazo[1,2-a]pyridin-2-yl)phenyl)piperidin-4-amine]",81,40.9,41.4,inhibited the growth,inhibited the growth
